Experiments:
Format in all cases: functional
Details in all cases: route intraperitoneal
[1] = test system: Gallus gallus; assay: Anti-emetic activity against copper sulfate-induced emesis in 4 days old chicks assessed as inhibition of number of retching reflexes at 10 mg/kg, ip measured 10 mins after copper sulfate challenge
[2] = test system: Gallus gallus; assay: Anti-emetic activity against copper sulfate-induced emesis in 4 days old chicks assessed as inhibition of number of retching reflexes at 20 mg/kg, ip measured 10 mins after copper sulfate challenge
[3] = test system: Gallus gallus; assay: Anti-emetic activity against copper sulfate-induced emesis in 4 days old chicks assessed as inhibition of number of retching reflexes at 50 mg/kg, ip measured 10 mins after copper sulfate challenge

| SMILES | inhibition in vivo at 10 mg/kg [1] [%] | inhibition in vivo at 20 mg/kg [2] [%] | inhibition in vivo at 50 mg/kg [3] [%] |
| --- | --- | --- | --- |
| O=C(CCc1ccccc1)C[C@@H]1C[C@@H](c2ccccc2)c2c(cc(/C=C/c3ccccc3)oc2=O)O1 [KATSUMADAIN A] | 8.8 | 14.5 | 50.2 |
| O=C(CCc1ccccc1)CC(/C=C/c1ccccc1)c1c(O)cc(/C=C/c2ccccc2)oc1=O (centres undefined) [KATSUMADAIN B] |  |  | 41.4 |
